Experimental data as given in patent publication EP3650451A1, “COMPOUNDS AND THEIR USES AS FLUORESCENT PROBES” (Consejo Superior de Investigaciones Cientificas, priority 2017, dated 2019).

Columns and labels:
Assay type in all cases: cell-based, human
[1] = system: HeLa; assay: Kinetics of cell labeling by flow cytometry; conditions: 50 nM, staining times 5, 15 and 30 min
Method: (§1) The cell assays were carried out on two human cell lines: SCC38 and HeLa. The SCC38 line is derived from human laryngeal epidermoid carcinoma patients, while HeLa, the first human cell line established in culture, is derived from cervical cancer. The culture medium used for both cell lines was DMEM (Dulbecco's Modified Eagle's Medium) supplemented with 10% of fetal bovine serum (FBS), 100 U/mL of penicillin, 200 µg/mL of streptomycin, 100 µmol/L of non-essential amino acids and 2 mmol/L of glutamine. The cultures were incubated at 37 °C and 5% of CO2.
(§2) The kinetics of cell labeling with 4 was studied by flow cytometry with the SCC38 and HeLa cell lines, using MitoTracker® Red as a control marker, both at a concentration of 50 nM. The staining times studied were 5, 15, 30 and 45 minutes. After staining, the medium was removed, washed with PBS, trypsinized and the pellet was resuspended in 500 µL of PBS and introduced in the cytometer after filtration. A Beckman Coulter Cytomics FC500 Flow Cytometry Analyzer was used (Scientific-Technical Services, Universidad de Oviedo). Part of the resuspended cells were also plated and observed under the microscope.

[2] = system: SCC38; assay: Kinetics of cell labeling by flow cytometry
Method: as §1, §2

[3] = system: SCC38 cells; assay: Labeling in the presence of FCCP (depolarized mitochondrial membrane), flow cytometry
Method: • Fig. 1. In vivo labeling of SCC38 cells with compound 4 at different concentrations (50, 100 and 500 nM). Scale bar: 10 µm • Fig. 2. Flow cytometry studies in SCC38 and HeLa cell lines labeled with compound 4 and Mito Tracker® Red. Histograms wherein fluorescence intensity vs number of events is represented for each of the staining times (5, 15 and 30 min) and control (Ctrl), for the SCC38 and HeLa cells and for each of the two markers. • Fig. 3. Absorption (A) and fluorescence (B) spectra, normalized to molar absorption and fluorescence quantum yield of probe 4 in different solvents; chloroform (green), acetone (black), acetonitrile (red), ethanol (blue) and water (gray). • Fig. 4. […] (A) Flow cytometry analysis of SCC38 cells incubated in the presence (+FCCP) or absence (-FCCP) of FCCP 60 µM for 3 h before staining with 20 nM of 4 or 0.5 nm of MitoTracker. The data represent the mean fluorescence intensity (MFI) of the stained cells. (B) Microscopy analysis of SCC38 cells pretreated or not with FCCP before co-staining with 20 nM of 4 and 0.5 nm of MitoTracker. The graphs show the fluorescence profiles of the regions of interest indicated with white lines in the right-hand panels. Scale bars: 10 µm). • Fig. 5. […] The data represent the mean fluorescence intensity (MFI) of the stained cells (upper panels) and representative images of the cytometry profiles (lower panels). • Fig. 7. […] (B) The data represent the mean fluorescence intensity (MFI) of the labeled cells.
The labeling was analyzed by flow cytometry in the presence of carbonyl cyanide-p-(trifluoromethoxy)phenylhydrazone (FCCP), a protonophore used to reduce the mitochondrial membrane potential (ΔΨm) through depolarization of the mitochondrial membrane. […] Indeed, the suppression of dye-mitochondria electrostatic attraction as a passive labeling mechanism reduces the concentration of the dye in the cell organelle and, thus, the probability and extent of the fluorescence deactivation processes, with the ensuing increase in their efficiency. […]

[4] = system: SCC38 cells; assay: Inhibition of mitochondrial staining by (R)-palmitoylcarnitine (CACT substrate), flow cytometry; conditions: co-incubation, probe 50 nm, (R)-palmitoylcarnitine 100, 250 and 500 nM
Method: The SCC38 cells were co-incubated with the indicated concentrations of (R)-palmitoylcarnitine and 50 nM of 4 (A) or 50 nM of MitoTracker (B) before analyzing by flow cytometry. The data represent the mean fluorescence intensity (MFI) of the stained cells (upper panels) and representative images of the cytometry profiles (lower panels). • Fig. 7.
To test if CACT was in fact involved in the channeling of 4 to the mitochondrial matrix, we firstly studied the effect of (R)-(+)-palmitoylcarnitine, a natural CACT substrate, in cell labeling by 4.

CC1=CC(C)=[N+]2C1=C(c1c(C)cc(C)cc1C)c1c(C)cc(C)n1[B-]21OC(=O)C[C@H](C[N+](C)(C)C)O1 (stereo partly drawn) [Compound 4]
change of staining intensity with incubation time [1]: clearly increased in intensity with incubation time | change of staining intensity with incubation time ([2]; SCC38, 50 nM, staining times 5, 15 and 30 min): clearly increased in intensity with incubation time | labeling intensity at longer staining time ([2]; new cytometry experiment, 45 min versus 30 min, cell line not stated): even more intense than with a time of 30 minutes | labeling of depolarized mitochondria ([3]; 60 µM FCCP for 3 h at 37 °C): capable of labeling depolarized mitochondria | mitochondrial fluorescence of cells treated with FCCP ([3]; 60 µM FCCP for 3 h at 37 °C before staining, 20 nM of 4 or 0.5 nM of MitoTracker): increase in fluorescence | effect of (R)-palmitoylcarnitine on fluorescence intensity [4]: concentration-dependent reduction of fluorescence intensity
